Assay results: patent US20230047313A1, “TREATING HEART DISEASE IN MUSCULAR DYSTROPHY PATIENTS” (Children`s Medical Center Corporation, priority 2019, published 2023)
“Also recorded” adds a separate entry of the source.

Key:
Format in all cases: in vivo, mouse
Utrn/mdx dko mice [1] = experiment: Oral gavage of Nox4 inhibitor in Utrn/mdx dko mice, cardiac function by echocardiography; conditions: 60 mg/kg/day daily, 2, 4 and 8 weeks, both younger and older mice
Experimental: Nox4 inhibitor GKT 137831 was purchased from MilliporeSigma and dissolved in corn oil. […] Cardiac function was monitored using echocardiography before (pre-) and after Nox4 Inhibitor treatment at indicated times (weeks or months) and was presented as EF (ejection fraction) or FS % (fractional shortening), respectively. Utrn/mdx dko mice were sacrificed after final echocardiography measurement after 2 months. Histology was performed in the heart tissues and the expression of cardiac genes and fibronectin, a molecular marker for fibrosis, measured using real-time qPCR.

Utrn/mdx dko mice [2] = experiment: Quantitative real time PCR of fibronectin in hearts of Utrn/mdx dko mice after Nox4 inhibitor treatment; conditions: 8 weeks after treatment, 60 mg/kg/day
From the text: (§1) Male mutation mice for both CIP and dystrophin genes (CIP-KO/mdx dko) were divided into four groups: • 1) group young control (3-month old mouse with corn oil); • 2) group young inhibitor (3-month old mouse with nox4 inhibitor); • 3) group old control (5-month old mouse with corn oil); • 4) group Old inhibitor (5-month old mouse with nox4 inhibitor) Male mutation mice for utrophin and dystrophin (c) were divided into two groups: • 1) group C: control (3-month old mouse with corn oil); • 2) group I: inhibitor (3-month old mouse with nox4 inhibitor); For all the animals in the inhibitor treatment group, the Nox4 Inhibitor (GKT137831 (SIGMA) diluted 1:100 in corn oil) was applied at the dosage of 60 mg/kg/day daily; control group was treated with corn oil only. Cardiac function was monitored using echocardiography before (pre-) and after Nox4 Inhibitor treatment at indicated times (weeks or months) and was presented as EF (ejection fraction) or FS % (fractional shortening), respectively. Utrn/mdx dko mice were sacrificed after final echocardiography measurement after 2 months. Histology was performed in the heart tissues and the expression of cardiac genes and fibronectin, a molecular marker for fibrosis, measured using real-time qPCR.

Utrn/mdx dko mice [3] = experiment: Histology (Fast green/Sirius red staining) of heart sections of Utrn/mdx dko mice after Nox4 inhibitor treatment; conditions: 8 weeks after treatment, 60 mg/kg/day
From the text: as §1

CIP-KO/mdx dko mice = experiment: Oral gavage of Nox4 inhibitor in CIP-KO/mdx dko mice, cardiac function by echocardiography
From the text: Nox4 inhibitor GKT 137831 was purchased from MilliporeSigma and dissolved in corn oil. Male mutation mice for both CIP and dystrophin genes (CIP-KO/mdx dko) were divided into four groups: • 1) group young control (3-month old mouse with corn oil); • 2) group young inhibitor (3-month old mouse with nox4 inhibitor); • 3) group old control (5-month old mouse with corn oil); • 4) group Old inhibitor (5-month old mouse with nox4 inhibitor) Male mutation mice for utrophin and dystrophin (c) were divided into two groups: • 1) group C: control (3-month old mouse with corn oil); • 2) group I: inhibitor (3-month old mouse with nox4 inhibitor); For all the animals in the inhibitor treatment group, the Nox4 Inhibitor (GKT137831 (SIGMA) diluted 1:100 in corn oil) was applied at the dosage of 60 mg/kg/day daily; control group was treated with corn oil only. Cardiac function was monitored using echocardiography before (pre-) and after Nox4 Inhibitor treatment at indicated times (weeks or months) and was presented as EF (ejection fraction) or FS % (fractional shortening), respectively. Utrn/mdx dko mice were sacrificed after final echocardiography measurement after 2 months. Histology was performed in the heart tissues and the expression of cardiac genes and fibronectin, a molecular marker for fibrosis, measured using real-time qPCR.

`CN(C)c1cccc(-c2c3c(=O)n(-c4ccccc4Cl)[nH]c3cc(=O)n2C)c1` [GKT137831] was tested, and the “cardiac function (Ejection Fraction, EF; Fractional Shortening, FS %), echocardiography” value (Utrn/mdx dko mice [1]) was “preserved cardiac function”, the “left ventricle dilation (LVID), echocardiography” value (Utrn/mdx dko mice [1]) was “reduced the left ventricle dilation (LVID)” and the “fibronectin expression in the hearts, qPCR” value (Utrn/mdx dko mice [2]) was “reduced fibronectin expression”. For the same compound, the “formation of cardiac fibrosis and scars, Fast green/Sirius red staining” value (Utrn/mdx dko mice [3]) was “decreased the formation of cardiac fibrosis and the formation of scars”, the “size of the left ventricle dimension, histological analysis” value (Utrn/mdx dko mice [3]) was “reduced the size of the left ventricle dimension” and the “left ventricle dilation (LVID), echocardiography” value (CIP-KO/mdx dko mice; CIP-KO:mdx mice, 60 mg/kg/day daily, both younger (start 3 months old) and older (start 5 months old) mice) was “reduced the left ventricle dilation (LVID)”. For the same compound, the “cardiac function (Ejection Fraction, EF), echocardiography” value (CIP-KO/mdx dko mice; CIP-KO:mdx mice, 60 mg/kg/day daily, both younger (start 3 months old) and older (start 5 months old) mice, 60 mg/kg/day) was “preserved cardiac function; also recorded: improves cardiac function”, the cardiac fibrosis (CIP-KO/mdx dko mice; mdx/CIP-KO mice as worded in the summary sentence, 60 mg/kg/day daily) was “reduces cardiac fibrosis” and the dystrophic cardiomyopathy (CIP-KO/mdx dko mice; mdx/CIP-KO mice, 60 mg/kg/day daily) was “potently ameliorated dystrophic cardiomyopathy”. The “development of heart failure” value (CIP-KO/mdx dko mice; mdx/CIP-KO mice, 60 mg/kg/day daily oral gavage, 60 mg/kg/day) was “preventing the development of heart failure; also recorded: potently prevents the development of heart failure”.
